This assay can be described thus: Swimming test according to Porsolt (forced swim, motor activity / immobility phases). Type of assay: in vivo. To be noted: Ratte; for minimal effective dose: read-out: niedrigste, bereits wirksame Dosis. From the text: Die erfindungsgemäßen Verbindungen der Formel I zeigen zum Beispiel im Schwimm-Test nach Porsolt eine gute dosisabhängige antidepressive Wirkung.
Der Schwimm-Text an der Ratte erfolgt in Anlehnung an die Methode von Porsolt (Porsolt, R.D., A. Bertin and M. Ialfre, 1977, Behavioral despair in mice, Arch. Intern. Pharmacodyn. Ther. 229, 327): Hierzu werden Ratten einzeln in einen mit Wasser gefüllten Plastikbehälter gesetzt. Die Höhe des Behälters ist 30 cm, die Länge beträgt 35 cm und die Breite 20 cm. Das Wasser hat eine Temperatur von 25° C und die Tiefe ist 20 cm. Die Schwimmaktivitäts- beziehungsweise die Immobilisationsphasen der Tiere werden mit Hilfe eines motor activity meters über 15 Minuten in einem Abstand von 1 Minute (Impulse/Min.) registriert. Im Normalfall (das heißt ohne Antidepressivum) machen die Tiere nur für kurze Zeit Schwimmbewegungen und lassen sich dann treiben. Die Zunahme der Aktivitäts- beziehungsweise Abnahme der Immobilisationsphasen (die Tiere schwimmen nicht, sondern lassen sich treiben) gilt als Maß für die antidepressive Wirkung einer Substanz. Die antidepressive Wirkung wird als Wirkung in % für eine bestimmte Dosis antidepressive Wirksubstanz angegeben bezogen auf eine Kontrollgruppe, die keine Wirkstubstanz bekommen hat.

Like-named read-outs stand apart in the source and are kept apart here.

As for `Clc1cccc(SC2CCNCC2)n1` [Anpirtolin, 6-Chlor-2-piperidyl-(4)-thio-pyridin], the “antidepressive Wirkung (Wirkung in %)” value (Dosis 6 mg/kg Körpergewicht, intraperitoneale Applikation, relative to control group without active substance) is given as 50%. In addition, the minimal effective dose (oral) was determined as 20 mg/kg and the minimal effective dose (iv, intravenös) came to 0.5 mg/kg.

(Values after patent EP0330826A2, “Use of pyridin-2-ethers or pyridin-2-thioethers with a nitrogen-containing cycloaliphatic ring as agents with an antidepressant activity” (ASTA Pharma Aktiengesellschaft, priority 1988, dated 1989).)
